The record followed here is US20230067929A1, “HETEROCYCLIC DERIVATIVES, PHARMACEUTICAL COMPOSITIONS AND THEIR USE IN THE TREATMENT, AMELIORATION OR PREVENTION OF CANCER” (Tolremo Therapeutics AG, priority 2018, published 2023).

The assay has as its system A375 cells. In words: A375 cell immunofluorescence assay (with 1 μM S1152 and 0.5 μM S1008), EC50. The format is cell-based. The following applies: 1 μM S1152 + 0.5 μM S1008, one day, ratio FL2/FL3 staining (sc-365823 antibody). The procedure, abridged: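 A375 cells were treated for 1 day with 1 μM S1152, 0.5 μM S1008 and compound dose ranges in DMEM/10% FCS/2 mM glutamine, then fixed, permeabilized and immunostained (secondary antibody 2 μg/ml). FL2 (500-530 nm) signal was measured in propidium iodide-defined objects (FL3, 565-600 nm). The normalized ln FL2/ln FL3 ratio was log-transformed, and EC50 came from a 4-parameter fit.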
For `CCC(=O)N1CCCC(c2nc(Nc3cccc(F)c3)cc(NC3CCC3)n2)C1` (stereo not drawn), the half-maximal effective concentration (EC50) is over 10 µM.

Regarding `CC(=O)N1C[C@H](c2nc(Nc3cncc(C)c3)cc(-c3cncc4[nH]ccc34)n2)CC[C@@H]1C`, the EC50 was under 1 µM.

`CC(=O)N1CCC(C)C(c2nc(Nc3cccc(F)c3)cc(-c3cccnc3)n2)C1` (stereo not drawn) [drawing 719]: the half-maximal effective concentration (EC50) fell in the range of 1 to 10 µM.

Take `CCC(=O)N1CCCC(c2nc(Nc3cc(F)cc(F)c3)cc(-c3cccnc3)n2)C1` (stereo not drawn): the EC50 was in the range of 1 to 10 µM.

As for `CC(=O)N1CCCC(c2nc(Nc3cccc(F)c3)cc(-c3cncnc3)n2)C1` (stereo not drawn), the 50% effective concentration (EC50) lay within 1 to 10 µM.

On to `CCc1cccc(Nc2cc(-c3cncc(OC)c3)nc(C3CCCN(C(C)=O)C3)n2)c1` (stereo not drawn), for which the concentration for a half-maximal effect (EC50) was 1 to 10 µM.

For `CCC(=O)N1CCCC(c2nc(Nc3ccc(C)cc3)cc(-c3cccnc3)n2)C1` (stereo not drawn), the EC50 was 1 to 10 µM.

On to `CC(=O)N1CCCC(c2nc(Nc3cccnn3)cc(-c3cccnc3)n2)C1` (stereo not drawn), for which the concentration for a half-maximal effect (EC50) was over 10 µM.

`CC(=O)N1CCCC(c2nc(Nc3cccc(C)c3)cc(-c3cncc4[nH]ncc34)n2)C1` (stereo not drawn): the EC50 is under 1 µM.

With `CCC(=O)N1CCCC(c2nc(Nc3ccccc3)cc(-c3cccnc3)n2)C1` (stereo not drawn), the 50% effective concentration (EC50) lay in the range of 1 to 10 µM.

For the compound `CCC(=O)N1CCCC(c2nc(Nc3ccc(O)nc3)cc(-c3cccnc3)n2)C1` (stereo not drawn), the 50% effective concentration (EC50) was over 10 µM.

As to `CCC(=O)N1CCCC(c2nc(Nc3cccc(F)c3)cc(-c3ccc4scnc4c3)n2)C1` (stereo not drawn), the concentration giving a half-maximal response (EC50) was in the range of 1 to 10 µM.

For `CC(=O)N1CC(F)CC(c2nc(Nc3cccc(F)c3)cc(-c3cccnc3)n2)C1` (stereo not drawn) [drawing 702], the EC50 fell in the range of 1 to 10 µM.

On to `CC(=O)N1CC(F)CC(c2nc(Nc3cccc(F)c3)cc(-c3cccnc3)n2)C1` (stereo not drawn) [drawing 703], for which the concentration for a half-maximal effect (EC50) lay in the range of 1 to 10 µM.

On to `CC(=O)NCCOCCOCCOCC(=O)Nc1ccc(-c2cc(Nc3cccc(F)c3)nc(C3CCCN(C(C)=O)C3)n2)cc1` (stereo not drawn), for which the EC50 lay in the range of 1 to 10 µM.

As to `CC(=O)N1CCCC(c2nc(Nc3cccc(F)c3)cc(-c3cc(C)cs3)n2)C1` (stereo not drawn), the EC50 was under 1 µM.

On to `CC(=O)N1CCOC(c2nc(Nc3cccc(F)c3)cc(-c3cccnc3)n2)C1` (stereo not drawn), for which the half-maximal effective concentration (EC50) was over 10 µM.

Regarding `CC(=O)N1CCCC(c2nc(Nc3cccc(F)c3)cc(-c3cncc(N4CCNCC4)c3)n2)C1` (stereo not drawn), the concentration giving a half-maximal response (EC50) is over 10 µM.

As for `CC(=O)N1CCCC(c2nc(Nc3cccnc3)cc(-c3cncnc3)n2)C1` (stereo not drawn), the concentration for a half-maximal effect (EC50) was over 10 µM.

For `COc1cncc(-c2cc(Nc3cccc(F)c3)nc(C3CCCN(C(C)=O)C3)n2)c1` (stereo not drawn), the EC50 was under 1 µM.

Regarding `CCC(=O)N1CCCC(c2nc(Nc3cccc(F)c3)cc(-c3ccc(C(=O)NC)cc3)n2)C1` (stereo not drawn), the EC50 lay in the range of 1 to 10 µM.

`CC(=O)N1CC(c2nc(Nc3cccc(F)c3)cc(-c3cccnc3)n2)Cc2ccccc21` (stereo not drawn): the EC50 was over 10 µM.

For `CC(=O)N1CCCC(c2nc(Nc3cccc(F)c3)cc(-c3cncc(C(=O)N4C[C@@H]5C[C@H]4CO5)c3)n2)C1` (stereo partly drawn), the concentration giving a half-maximal response (EC50) is 1 to 10 µM.

Take `CC(=O)N1C[C@H](c2nc(Nc3ccncc3)cc(-c3cccnc3)n2)CC[C@@H]1C`: the EC50 was under 1 µM.

Consider `CCC(=O)N1CCCC(c2nc(Nc3cccc(F)c3)cc(-c3cccnc3)n2)C1` (stereo not drawn), for which the EC50 was in the range of 1 to 10 µM.

`CCC(=O)N1CCCC(c2nc(Nc3ccc(Cl)cc3)cc(-c3cccnc3)n2)C1` (stereo not drawn): the half-maximal effective concentration (EC50) was in the range of 1 to 10 µM.

In the case of `CC(=O)N1C[C@H](c2nc(Nc3cccc(C)c3)cc(-c3cccnc3)n2)CC[C@@H]1C(F)(F)F`, the 50% effective concentration (EC50) is under 1 µM.

With `COc1ccc(-c2cc(Nc3cccc(F)c3)nc(C3CCCN(C(C)=O)C3)n2)cc1` (stereo not drawn), the concentration giving a half-maximal response (EC50) fell in the range of 1 to 10 µM.

Regarding `CC(=O)N1CC(c2cc(Nc3cccc(F)c3)cc(-c3cccnc3)n2)CCC1C` (stereo not drawn) [drawing 690], the concentration giving a half-maximal response (EC50) was 1 to 10 µM.

As to `CCC(=O)N1CCCC(c2nc(Nc3cccc(F)c3)cc(-c3cccc(OC(F)F)c3)n2)C1` (stereo not drawn), the EC50 was over 10 µM.

`CCC(=O)N1CCC(c2nc(Nc3cccc(F)c3)cc(-c3cccnc3)n2)C1` (stereo not drawn): the 50% effective concentration (EC50) is over 10 µM.

As for `CCC(=O)N1CCCC(c2nc(Nc3ccccc3Cl)cc(-c3cccnc3)n2)C1` (stereo not drawn), the EC50 fell in the range of 1 to 10 µM.

For the compound `CC(=O)N1CCCC(c2nc(NC3CCCC3)cc(-c3cccnc3)n2)C1` (stereo not drawn), the 50% effective concentration (EC50) is over 10 µM.
